From patent publication US20210290784A1, “POSITRON EMISSION TOMOGRAPHY (PET) RADIOTRACERS FOR IMAGING MACROPHAGE COLONY-STIMULATING FACTOR 1 RECEPTOR (CSF1R) IN NEUROINFLAMMATION” (The Johns Hopkins University, priority 2018, published 2021)

Key:
[1] = Whole-body radiation dosimetry in mice, extrapolated to human; type: in vivo
Experimental: Male CD-1 mice were injected with [^11C]CPPC as described above for baseline studies and were euthanized at 10, 30, 45, 60, and 90 min after treatment. The various organs were quickly removed and percentage injected dose (% ID) per organ was determined. The human radiation dosimetry of [^11C]CPPC was extrapolated from the mouse biodistribution data using SAAM II (Simulation Analysis and Modeling II) and OLINDA/EXM software. The data were analyzed commercially (RADAR, Inc).
Radiation dosimetry for [^11C]CPPC was studied in fifteen male CD-1 mice (23-27 g) following our published procedure (Stabin M G, et al. (2005)). A solution of [^11C]CPPC in 0.2 ml of saline (7.4 MBq or 0.2 mCi) was injected as a bolus into the lateral tail vein, and groups of mice (n=3) were euthanized at 10, 30, 45, 60, and 90 min after the radiotracer injection. The lungs, heart, kidneys, liver, spleen, intestine, stomach, and brain were quickly removed and put on ice. One femur and samples of thigh muscle, bone marrow and blood were also collected. The organs were weighed, and the tissue radioactivity was measured with an automated gamma counter (LKB Wallac 1282 CompuGamma CS Universal Gamma Counter). The percent injected dose per organ (% ID/organ) was calculated by comparison with samples of a standard dilution of the initial dose. All measurements were corrected for decay. Resultant values of % ID/organ were fit using the SAAM II software (Foster D M (1998)). Time integrals of activity (Stabin M G and Siegel J A (2003)) were entered into the OLINDA/EXM software (Stabin M G, et al. (2005)), using the adult male model. […] The number of disintegrations in the remainder of body was assumed to be equal to 100% of the activity administered integrated to total decay of ^11C, minus the disintegrations in other body organs.

CSF1R = molecular target: T1, CSF1R (Mus musculus, UniProt P09581); assay: Brain uptake in intracranial LPS (i.c.-LPS) mouse model of neuroinflammation; type: in vivo; parameters: from tissue; host or cells: brain of living CD-1, C57BL/6J, transgenic APP (AD model), EAE and CSF1R KO mice; details: i.c.-LPS mice
T1 sequence (P09581 20-977): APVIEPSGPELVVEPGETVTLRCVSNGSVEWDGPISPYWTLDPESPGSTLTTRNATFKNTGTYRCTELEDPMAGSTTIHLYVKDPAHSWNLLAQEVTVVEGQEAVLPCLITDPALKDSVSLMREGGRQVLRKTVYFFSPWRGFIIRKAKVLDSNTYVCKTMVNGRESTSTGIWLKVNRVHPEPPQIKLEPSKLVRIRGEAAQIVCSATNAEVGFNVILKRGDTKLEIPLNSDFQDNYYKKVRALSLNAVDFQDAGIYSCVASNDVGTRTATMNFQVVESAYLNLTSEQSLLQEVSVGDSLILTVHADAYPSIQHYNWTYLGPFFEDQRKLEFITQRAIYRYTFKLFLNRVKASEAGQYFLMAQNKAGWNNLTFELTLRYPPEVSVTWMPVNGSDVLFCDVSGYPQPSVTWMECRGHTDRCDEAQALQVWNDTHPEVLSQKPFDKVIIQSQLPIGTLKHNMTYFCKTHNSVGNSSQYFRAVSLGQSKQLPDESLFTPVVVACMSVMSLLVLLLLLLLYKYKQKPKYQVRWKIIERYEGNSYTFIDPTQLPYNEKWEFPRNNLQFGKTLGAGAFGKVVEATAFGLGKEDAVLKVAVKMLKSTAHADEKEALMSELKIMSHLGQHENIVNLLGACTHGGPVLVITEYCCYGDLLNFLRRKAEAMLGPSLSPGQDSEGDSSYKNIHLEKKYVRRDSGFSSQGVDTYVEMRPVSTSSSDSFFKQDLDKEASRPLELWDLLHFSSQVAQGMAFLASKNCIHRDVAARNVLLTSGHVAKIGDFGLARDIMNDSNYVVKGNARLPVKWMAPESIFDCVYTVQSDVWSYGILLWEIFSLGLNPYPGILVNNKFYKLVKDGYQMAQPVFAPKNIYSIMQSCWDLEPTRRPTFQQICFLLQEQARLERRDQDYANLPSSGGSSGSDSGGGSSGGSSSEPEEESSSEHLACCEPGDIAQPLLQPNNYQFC
Experimental: (§1) Experiment 1, FIG. 1A. […] CD1 mice were anaesthetized with avertin (250 mg/kg, IP). Peri-procedural analgesia was provided with finadine (2.5 mg/kg, SC). The coordinates for intraparenchymal injection in the right forebrain were AP −0.5 mm′ DV −2.5 mm; and ML 1.0 right of midline. The holes were drilled perpendicularly to the previously exposed skull. Sterile phosphate buffered saline (PBS) (0.5 μL) or 5 μg lipopolysaccharide (LPS, 011:B4, Calbiochem, San Diego, Calif.) in 0.5 μL PBS was injected into the brain parenchyma using a 1 μL Hamilton syringe. After injection, the needle was kept in the brain for additional 3 min and slowly removed. The incision was sealed with dental cement. […] The whole brains were removed and dissected on ice. […] The outcome variables were calculated as % SUV.
as §1, with “2,” for “1,”, “1B.” for “1A.”, “The” for “CD1”

[2] = two exponential fit of % ID/organ

## [11CH3]N1CCN(c2ccc(NC(=O)c3ccc(C#N)o3)c(N3CCCCC3)c2)CC1 [[^11C]CPPC, 5-cyano-N-(4-(4-[^11C]methylpiperazin-1-yl)-2-(piperidin-1-yl)phenyl)furan-2-carboxamide]
[1]; CD-1 mice
  Activity observed in the intestines: ~35%
[1]; proposed dose of 740 MBq (20 mCi)
  radiation burden to a human subject vs FDA limit: < 5 Rem
[1]; [2]
  fitted metabolic model, Brain, first component %: 3.83%
  fitted metabolic model, Brain, first component T-bio: 0.302 h
  fitted metabolic model, Brain, second component %: 0.38%
  fitted metabolic model, Brain, second component T-bio: ∞
  fitted metabolic model, Heart, first component %: 1.00%
  fitted metabolic model, Heart, first component T-bio: 0.272 h
  fitted metabolic model, Heart, second component %: 0.14%
  fitted metabolic model, Heart, second component T-bio: ∞
  fitted metabolic model, Kidneys, first component %: 8.32%
  fitted metabolic model, Kidneys, first component T-bio: 0.297 h
  fitted metabolic model, Kidneys, second component %: 1.52%
  fitted metabolic model, Kidneys, second component T-bio: ∞
  fitted metabolic model, Liver, first component %: 97.6%
  fitted metabolic model, Liver, first component T-bio: 0.764 h
  fitted metabolic model, Liver, second component %: −100%
  fitted metabolic model, Liver, second component T-bio: 0.335 h
  fitted metabolic model, Lungs, first component %: 8.27%
  fitted metabolic model, Lungs, first component T-bio: 0.159 h
  fitted metabolic model, Lungs, second component %: 1.53%
  fitted metabolic model, Lungs, second component T-bio: 2.27 h
  fitted metabolic model, Spleen, first component %: 1.43%
  fitted metabolic model, Spleen, first component T-bio: 0.823 h
  fitted metabolic model, Spleen, second component %: −1.24%
  fitted metabolic model, Spleen, second component T-bio: 0.145 h
CSF1R
  specific fraction of elevated binding vs. sham animals: ~50%
CSF1R; blocker 0.3 mg/kg IP
  reduction of uptake by blocking with nonradiolabeled CPPC, low dose: insignificant
CSF1R; blocker 0.6 or […] IP
  reduction of uptake by blocking with nonradiolabeled CPPC, higher doses: significantly reduced
